Patent US6406679B1, “Use of HL-60-related lectins in drug delivery and detection of lectin-expressing cells” (Incyte Pharmaceuticals, Inc., priority 1992, dated 2002)
Where “and” joins values, the source holds several entries; their conditions need not be identical. Identical values can stand only once.

What was measured:
[1] = test system: T-cell lines; assay: Selection of GPBP-specific T-cell lines from draining lymph nodes; format: in vivo, rat; details: lectin-treated rats
From the text: In a follow-up experiment, T-cell lines were selected from the draining lymph nodes.

[2] = test system: Lewis rat; assay: Experimental autoimmune encephalomyelitis (EAE) induced with GPBP/CFA; format: in vivo
From the text: Experimental autoimmune encephalomyelitis (EAE) is a T-cell-mediated disease considered to be a useful model for human paralytic and demyelinating diseases such as multiple sclerosis (Vandenbark, A. et al., J. Immunol. (1985) 135:223). In the Lewis rat, paralytic signs of EAE are induced about 14 days after injecting guinea pig myelin basic protein (GPBP) in Complete Freund's Adjuvant (CFA). It has been shown by Offner, H. et al. (J. Immunol. (1988) 141:3288) that T-cells specific for GPBP in immunized rats recognize amino acid residues 72-89 of GPBP and have the ability to transfer both clinical signs of EAE and delayed-type hypersensitivity reaction to GPBP to other animals.
In the studies reported in this example, EAE was induced by injection of GPBP/CFA as described above.
In one protocol intravenous administration of lectin was started at day 0 relative to 50 μg GPBP/CFA injection, with additional lectin treatment at days 3 and 6. The severity of the disease was determined clinically and histologically:
“Clinical” Ratings are as Follows:
3=Hind quarter paralysis.
“Histologic” Ratings are as Follows:
Slides were examined for degree of inflammation with ratings as follows:
0.5=a few infiltrating cells in the meninges;
1=meningeal infiltration, more organized and concentrated around blood vessels;
2-4=increasing intensity of meningeal infiltration and perivascular cuffing in the CNS parenchyma.
In a second protocol, lectin was first administered three days before immunization with 50 μg GPBP/CFA and was followed by daily injections until day 7 after immunization.
In an additional experiment, animals were given various doses of lectin on days 0-12, following the administration of 10 μg GPBP injected intramuscularly.

[3] = test system: mice immunized with AChR; assay: EAMG: muscle acetylcholine receptor content and Ig-complexed AChR; format: in vivo, mouse; details: for % of AChR Complexed with Ig / Carcass AChR Content: 10 days after injection
Method: After the observation period, the animals were sacrificed, skinned, and eviscerated; and a cholinergic receptor (AChR) extract was prepared as described by Lefvert, A. K. et al., Scand. J. Immunol. supra for determination of total AChR content and Ig-complexed AChR content, as described therein.
Briefly, to determine total AChR content, known portions of the AChR extracts were incubated with a ten-fold excess of ^125I-alpha-bungarotoxin for 1 hour at 37° C. so as to label the receptor for quantitation. The mixture was subjected to gel filtration on Sephacryl G200 to separate free and bound toxin. To determine the amount of AChR complexed to IgG or IgM antibodies, the extract was incubated with a ten-fold excess of labeled bungarotoxin overnight at 4° C.; anti-mouse IgG or IgM was then added and the samples incubated overnight at 4° C., followed by separation of the precipitates, washing and counting.

[4] = test system: Lewis rats; assay: Rat heart transplantation (Brown Norway into Lewis); format: in vivo; details: for Onset of Rejection: d − 3 to d + 9, heart allograft
Method: The studies reported here relate to Brown Norway rat tissue transplanted into Lewis rats. This model, a highly histo-incompatible donor/recipient pair, provides a very stringent test with predictive value in human transplantation. Known general immunosuppressive agents show immunosuppressive activity in these models. Several forums of this model are used in the studies reported here.
These studies were performed in the laboratory of Dr. Randy Morris of Stanford University. Whole rat hearts were grafted into host rats which were examined daily thereafter for signs of rejection.
A control group comprised twelve recipients treated daily i.v. only with buffer control. The graft survival times were: 6d (x4), 7d (x7), and 8d, giving a mean survival of […]+/−0.6d (SD). The final day of survival is defined as the day on which the donor heart ceased to contract as assessed by lack of obvious palpitations and as confirmed by direct visualization at laparotomy.
Five recipients were treated with the recombinant lectin. All animals were pretreated with 1 mg/kg i.v. lectin on days −3, −2 and −1. The first two animals were then treated postoperatively with 1 mg/kg/d i.v. with lectin from day 1 until graft rejection. The second three animals were treated in the postoperative period from day 1 until graft rejection with 2 mg/kg/d i.v. of lectin. Graft survivals were 9 and 10d for the first group of rats, and 9, 10 and 11d for the second group. No dramatic increase in survival was seen by doubling the dose of lectin in group two in the postoperative period. Therefore, graft survival times of both groups were combined for statistical analysis. When graft survival was analyzed, lectin treatment produced a mean graft survival of 9.8+/−0.84d (SD), +/−0.38d (SEM) with a 95% confidence limit. Using the one-tailed Mann-Whitney U-test to compare the differences between the graft survival times for the saline and lectin-treated groups, a P value of 0.00096 was obtained.

[5] = test system: lymph node cells; assay: Proliferative response of draining lymph node cells of GPBP/CFA-injected rats; format: in vivo, rat
Method: At the indicated times after injection of 50 μg GPBP/CFA, lymph nodes draining the site of injection were collected and tested for a proliferative response to GPBP, purified protein derivative (PPD), and the T-cell mitogen, Concanavalin A (ConA). Consistent with the DTH test, lymph node cells of the lectin-treated rats had low or absent responses to both GPBP and PPD relative to control rats, especially on days 14 and 21 during which EAE onset occurs.

[6] = test system: Spleen Cells; assay: In vivo effect of lectin on phenotypes of lymphocytes (antibody staining); set-up: species or system rat; details: for % positive / F^L / % CHANGE IN POSITIVES: Spleen Cells
[7] = 250 μg lectin Days −3 to 6 daily
[8] = 250 μg lectin Days −3 to 6 daily, background subtracted
[9] = 250 μg lectin Days −3 to 6 daily, scale 0-4
[10] = antibody IgG, lectin-treated rats

“Lectin: Soluble 14 kD β-galactoside-binding HL-60/placenta lectin of FIG. 1 (SEQ ID NO:2), prepared recombinantly in E. coli” was tested, and the “GPBP-specific T-cell lines from draining lymph nodes” value [1] was “no lines could be established”, the “Duration” value ([2]; 250 μg lectin Days 0, 3, 6) was 3.0 days and 3 days and the “Loss of Weight” value ([2]; 250 μg lectin Days 0, 3, 6) was 20 g. The “Severity of Disease, Histological Rating” value ([2]; 250 μg lectin Days 0, 3, 6, scale 0-4) was 3.5, the “Duration (days)” value [2, 7] was 0^3 days and the “Loss of Weight (g)” value [2, 7] was “None^3”. The “GPBP DTH (delayed type hypersensitivity reaction, swelling)” value [2, 8] was 9 mm/100, the “PPD DTH (delayed type hypersensitivity reaction, swelling)” value [2, 8] was 4 mm/100 and the “Clinical Severity of Disease” value [2, 9] was 0^3/. The “Histologic Severity of Disease” value [2, 9] was 0.50^3, the “Day of Onset” value ([2]; 250 μg lectin i.v. Days 0, 3, 6, 50 μg GPBP/CFA) was 17 days and the “daily dosage optimal for ameliorating the symptoms” value ([2]; 10-1500 μg intraperitoneally days 0-12, 10 μg GPBP, FIGS. 10 and 11) was 500 µg. For the same substance, the “development of the disease (EAE)” value ([2]; lectin from three days before immunization, daily until day 7) was “prevented completely”, the “% of AChR Complexed with Ig” value ([3]; AChR + lectin 0.1 μg) was 48 ± 6.0% and the “Carcass AChR Content” value ([3]; AChR + lectin 0.1 μg) was 0.8 ± 0.4 mol × 10^−11. For the same substance, the “% of AChR Complexed with Ig” value ([3]; AChR + lectin 1 μg) was 52 ± 2.0%, the “Carcass AChR Content” value ([3]; AChR + lectin 1 μg) was 1.4 ± 0.3 mol × 10^−11 and the “% of AChR Complexed with Ig” value ([3]; AChR + lectin 5 μg) was 44 ± 5.0%. For the same substance, the “Carcass AChR Content” value ([3]; AChR + lectin 5 μg) was 0.9 ± 0.5 mol × 10^−11, the “% of AChR Complexed with Ig” value ([3]; AChR + lectin 15 μg) was 11 ± 10.7% and the “Carcass AChR Content” value ([3]; AChR + lectin 15 μg) was 3.5 ± 0.4 mol × 10^−11. The “% of AChR Complexed with Ig” value ([3]; AChR + lectin 25 μg) was 11 ± 7.8%, the “Carcass AChR Content” value ([3]; AChR + lectin 25 μg) was 3.2 ± 0.6 mol × 10^−11 and the “AChR loss and amount of Ig-complexed AChR” value ([3]; single subcutaneous doses of about 7.5-12 μg) was “lowered”. The “Graft survival, individual animals” value ([4]; 1 mg/kg i.v. days −3 to −1, then 1 mg/kg/d i.v. until rejection) was 9 days and 10 days, the “Graft survival, individual animals” value ([4]; 1 mg/kg i.v. days −3 to −1, then 2 mg/kg/d i.v. until rejection) was 9 days and 10 days and 11 days and the “Onset of Rejection” value ([4]; 1 mg/kg) was 9.8 ± .8 days. For the same substance, the “Onset of Rejection” value ([4]; 2 mg/kg) was 9.8 ± .8 days, the “toxicity as might be manifested by weight loss” value ([4]; 1-2 mg/kg/d i.v.) was “no noticeable toxicity” and the “mean graft survival (SD)” value ([4]; both lectin dose groups combined, five recipients) was 9.8 ± 0.84 days. For the same substance, the “lymph node cell proliferative responses to GPBP and PPD” value ([5]; lectin-treated rats relative to control, especially days 14 and 21, FIG. 12) was “low or absent”, the “lymph node cell responses to ConA” value ([5]; lectin-treated rats, FIG. 12) was “normal or augmented” and the “% positive” value ([6]; antibody 0X6) was 15.6%. The “F^L” value ([6]; antibody 0X6) was 375, the “% CHANGE IN POSITIVES” value ([6]; antibody 0X6, lectin vs control) was 0% and the “% positive” value ([6]; antibody 0X8) was 41.2%. For the same substance, the “F^L” value ([6]; antibody 0X8 (suppressor T-cells)) was 323, the “% CHANGE IN POSITIVES” value ([6]; antibody 0X8, lectin vs control) was “+32%” and the “% positive” value ([6]; antibody 0X12) was 15.4%. For the same substance, the “F^L” value ([6]; antibody 0X12) was 363, the “% CHANGE IN POSITIVES” value ([6]; antibody 0X12, lectin vs control) was 0% and the “% positive” value [6, 10] was 24.3%. The “F^L” value [6, 10] was 129, the “% positive” value ([6]; antibody W3/13) was 85.9% and the “F^L” value ([6]; antibody W3/13 (total T-cells)) was 311. For the same substance, the “% CHANGE IN POSITIVES” value ([6]; antibody W3/13, lectin vs control) was −19%, the “% positive” value ([6]; antibody W3/25) was 67.2% and the “F^L” value ([6]; antibody W3/25 (helper T-cells)) was 161. For the same substance, the “% CHANGE IN POSITIVES” value ([6]; antibody W3/25, lectin vs control) was −24%, the “decrease in the numbers of spleen helper T-cells (w3/25 antibody reactive)” value ([6]; lectin-treated animals) was 19% and the “decrease in the numbers of spleen total T-cells (w3/13 antibody reactive)” value ([6]; lectin-treated animals) was 24%. For the same substance, the “increase in the number of spleen suppressor T-cells” value ([6]; lectin-treated animals) was 32%.
